Reference: patent US20230149603A1, “DRUG-RELEASING POLYMER COMPOSITION AND DEVICE” (Novaflux Inc., priority 2021, published 2023)
Counter-ions that a name gives are not always drawn.

Columns and labels:
[1] = Thermogravimetric analysis of the APIs; assay type: physicochemical; conditions: ramp heated to 140° C. and held for 10 minutes
Experimental: Thermogravimetric analysis was performed on the APIs used in compositions. Each drug was ramp heated to 140° C. and held at that temperature for 10 minutes. For all compositions, time spent melt-mixing is 8-10 minutes. The decomposition of the API in that time was less than 0.5% for each drug, meaning that the API are stable during processing. For Rifampin, the change in mass was 0.292%; for Minocycline HCl the change in mass was 0.421%; and for minocycline Free Base the change in mass was 0.137%.

[2] = Stability (discoloration) of the two forms of minocycline
[3] = system: A. Baumanii; conditions: averaged between the high and low of the MIC; cited from earlier work
[4] = system: E. Coli; conditions: averaged between the high and low of the MIC; cited from earlier work
[5] = system: S. Aureus; conditions: averaged between the high and low of the MIC; cited from earlier work
[6] = cited from earlier work
[7] = system: S. Epidermidis; conditions: averaged between the high and low of the MIC; cited from earlier work

change in mass (decomposition of the API) [1]	discoloration process ([2]; dry powder form exposed to air)	SMILES	stability (discoloration) over time ([2]; stored in distilled water and formulated in compositions)	MIC [3]	MIC [4]	MIC [5]	solubility in water [6]	MIC [7]
0.421%		CN(C)c1ccc(O)c2c1C[C@H]1C[C@H]3[C@H](N(C)C)C(O)=C(C(N)=O)C(=O)[C@@]3(O)C(O)=C1C2=O [Minocycline HCl]						
0.137%	not observed at all	CN(C)c1ccc(O)c2c1C[C@H]1C[C@H]3[C@H](N(C)C)C(=O)C(C(N)=O)=C(O)[C@@]3(O)C(=O)C1=C2O [minocycline Free Base]	the drug oxidizes with the passage of time					

SMILES	change in mass (decomposition of the API) [1]	discoloration process ([2]; dry powder form exposed to air)	stability (discoloration) over time ([2]; stored in distilled water and formulated in compositions)	MIC [3]	MIC [4]	MIC [5]	solubility in water [6]	MIC [7]
CO[C@H]1/C=C/O[C@@]2(C)Oc3c(C)c(O)c4c(O)c(c(/C=N/N5CCN(C)CC5)c(O)c4c3C2=O)NC(=O)/C(C)=C\C=C\[C@H](C)[C@H](O)[C@@H](C)[C@@H](O)[C@@H](C)[C@H](OC(C)=O)[C@@H]1C [Rifampicin]	0.292%			6 micrograms per ml	10 micrograms per ml	0.0095 micrograms per ml	low solubility in water	0.1 micrograms per ml
